Measured values as given in the kinase profiling compilation of Christmann-Franck et al. (2016).
Blank lines part the entries; values can stand above or below the compound they belong to.

Legend:
Experiment in all cases: Caliper, Mobility shift assay off-chip
LYN (human) = LYN (human) (UniProt P07948)
BRSK1 (human) = BRSK1 (human) (UniProt Q8TDC3)
FGFR2 (human) = FGFR2 (human) (UniProt P21802)
AKT2 (human) = AKT2 (human) (UniProt P31751)
CAMK2B (human) = CAMK2B (human) (UniProt Q13554)
PIM1 (human) = PIM1 (human) (UniProt P11309)
BRSK2 (human) = BRSK2 (human) (UniProt Q8IWQ3)
PRKCA (human) = PRKCA (human) (UniProt P17252)
RPS6KA2 KD1 KD2 (human) = RPS6KA2 KD1 KD2 (human) (UniProt Q15349)
PRKCB2 (human) = PRKCB2 (human) (UniProt P05771)
BTK (human) = BTK (human) (UniProt Q06187)
FLT3 (human) = FLT3 (human) (UniProt P36888)
MAPK14 (human) = MAPK14 (human) (UniProt Q16539)
FYN (human) = FYN (human) (UniProt P06241)
PRKCB1 (human) = PRKCB1 (human) (UniProt P05771)
RPS6KA3 KD1 KD2 (human) = RPS6KA3 KD1 KD2 (human) (UniProt P51812)
TSSK1B (human) = TSSK1B (human) (UniProt Q9BXA7)
AURKA (human) = AURKA (human) (UniProt O14965)
[1] = tested on: ABL1 (human), P00519 [Q252H]
PRKCE (human) = PRKCE (human) (UniProt Q02156)
PIM2 (human) = PIM2 (human) (UniProt Q9P1W9)
[2] = tested on: ABL1 (human), P00519 [T315I]
MAPK13 (human) = MAPK13 (human) (UniProt O15264)
MAPKAPK2 (human) = MAPKAPK2 (human) (UniProt P49137)
KDR (human) = KDR (human) (UniProt P35968)
RPS6KA1 KD1 KD2 (human) = RPS6KA1 KD1 KD2 (human) (UniProt Q15418)
CDK2 (human) = CDK2 (human) (UniProt P24941)
MARK2 (human) = MARK2 (human) (UniProt Q7KZI7)
CAMK4 (human) = CAMK4 (human) (UniProt Q16566)
MAPKAPK3 (human) = MAPKAPK3 (human) (UniProt Q16644)
TSSK2 (human) = TSSK2 (human) (UniProt Q96PF2)
MAPK3 (human) = MAPK3 (human) (UniProt P27361)
RPS6KA5 KD1 KD2 (human) = RPS6KA5 KD1 KD2 (human) (UniProt O75582)

Sequence of AURKA (human) (O14965 whole entry, looked up): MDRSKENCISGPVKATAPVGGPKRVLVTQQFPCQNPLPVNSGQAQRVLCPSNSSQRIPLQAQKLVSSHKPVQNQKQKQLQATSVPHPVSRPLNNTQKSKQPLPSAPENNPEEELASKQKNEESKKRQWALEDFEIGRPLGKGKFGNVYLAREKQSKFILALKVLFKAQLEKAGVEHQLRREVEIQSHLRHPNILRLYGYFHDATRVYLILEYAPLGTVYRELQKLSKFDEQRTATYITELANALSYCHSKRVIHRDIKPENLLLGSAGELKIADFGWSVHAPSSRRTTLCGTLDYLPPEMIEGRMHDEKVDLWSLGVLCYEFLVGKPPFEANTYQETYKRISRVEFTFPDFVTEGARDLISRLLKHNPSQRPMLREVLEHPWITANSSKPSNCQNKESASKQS
Sequence of MAPK3 (human) (P27361 whole entry, looked up): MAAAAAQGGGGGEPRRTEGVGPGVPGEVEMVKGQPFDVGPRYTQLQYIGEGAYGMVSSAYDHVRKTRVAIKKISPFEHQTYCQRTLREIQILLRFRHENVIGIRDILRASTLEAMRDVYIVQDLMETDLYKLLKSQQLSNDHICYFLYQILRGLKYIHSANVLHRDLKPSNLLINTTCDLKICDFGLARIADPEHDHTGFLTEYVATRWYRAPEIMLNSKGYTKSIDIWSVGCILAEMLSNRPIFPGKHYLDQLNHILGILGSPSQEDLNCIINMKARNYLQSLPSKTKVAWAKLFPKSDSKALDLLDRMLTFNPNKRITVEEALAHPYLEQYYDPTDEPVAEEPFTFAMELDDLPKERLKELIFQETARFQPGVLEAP
Sequence of FLT3 (human) (P36888 whole entry, looked up): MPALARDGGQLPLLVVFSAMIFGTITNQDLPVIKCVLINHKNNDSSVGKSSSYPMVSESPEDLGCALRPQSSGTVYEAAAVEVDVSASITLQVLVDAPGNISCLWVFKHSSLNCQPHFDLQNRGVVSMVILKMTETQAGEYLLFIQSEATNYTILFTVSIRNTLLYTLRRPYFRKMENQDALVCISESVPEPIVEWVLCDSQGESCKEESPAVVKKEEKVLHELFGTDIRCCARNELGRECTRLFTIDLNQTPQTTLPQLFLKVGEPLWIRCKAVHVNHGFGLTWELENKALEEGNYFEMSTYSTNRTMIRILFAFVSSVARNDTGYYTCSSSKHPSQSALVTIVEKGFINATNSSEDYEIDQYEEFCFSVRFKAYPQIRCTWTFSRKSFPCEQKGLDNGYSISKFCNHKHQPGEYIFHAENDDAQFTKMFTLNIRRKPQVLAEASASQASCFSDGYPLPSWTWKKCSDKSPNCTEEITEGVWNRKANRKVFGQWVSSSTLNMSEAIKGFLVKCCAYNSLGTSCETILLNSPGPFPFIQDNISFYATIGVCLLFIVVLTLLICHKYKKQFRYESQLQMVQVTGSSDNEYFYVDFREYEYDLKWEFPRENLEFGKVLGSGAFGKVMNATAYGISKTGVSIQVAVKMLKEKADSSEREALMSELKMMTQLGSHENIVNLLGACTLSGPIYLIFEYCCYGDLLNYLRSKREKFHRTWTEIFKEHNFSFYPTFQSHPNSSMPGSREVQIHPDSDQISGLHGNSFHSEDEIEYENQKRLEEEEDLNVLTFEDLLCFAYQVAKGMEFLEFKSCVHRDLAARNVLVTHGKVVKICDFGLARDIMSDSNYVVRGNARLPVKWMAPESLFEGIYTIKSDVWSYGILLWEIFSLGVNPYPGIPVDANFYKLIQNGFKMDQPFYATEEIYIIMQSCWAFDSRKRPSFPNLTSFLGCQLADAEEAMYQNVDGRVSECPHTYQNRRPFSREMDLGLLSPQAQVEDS
Sequence of RPS6KA2 KD1 KD2 (human) (Q15349 whole entry, looked up): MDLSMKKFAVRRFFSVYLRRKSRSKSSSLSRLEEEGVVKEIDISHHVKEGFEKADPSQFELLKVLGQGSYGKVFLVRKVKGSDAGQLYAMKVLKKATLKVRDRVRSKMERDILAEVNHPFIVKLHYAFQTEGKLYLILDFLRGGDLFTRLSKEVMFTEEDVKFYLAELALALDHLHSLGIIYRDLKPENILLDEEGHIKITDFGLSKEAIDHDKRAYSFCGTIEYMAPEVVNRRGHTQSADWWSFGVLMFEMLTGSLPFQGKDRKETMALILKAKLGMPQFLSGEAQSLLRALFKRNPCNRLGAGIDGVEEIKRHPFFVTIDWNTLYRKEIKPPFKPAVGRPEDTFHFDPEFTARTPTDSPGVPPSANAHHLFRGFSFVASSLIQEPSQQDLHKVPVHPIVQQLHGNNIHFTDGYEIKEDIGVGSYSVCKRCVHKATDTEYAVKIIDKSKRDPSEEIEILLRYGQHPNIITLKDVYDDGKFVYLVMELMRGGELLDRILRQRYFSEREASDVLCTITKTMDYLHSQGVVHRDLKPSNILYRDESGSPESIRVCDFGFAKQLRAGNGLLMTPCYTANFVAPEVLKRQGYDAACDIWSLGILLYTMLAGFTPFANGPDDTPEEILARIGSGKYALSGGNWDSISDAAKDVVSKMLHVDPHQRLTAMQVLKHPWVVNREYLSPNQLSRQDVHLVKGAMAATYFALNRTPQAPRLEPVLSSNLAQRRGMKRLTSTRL
Sequence of TSSK1B (human) (Q9BXA7 whole entry, looked up): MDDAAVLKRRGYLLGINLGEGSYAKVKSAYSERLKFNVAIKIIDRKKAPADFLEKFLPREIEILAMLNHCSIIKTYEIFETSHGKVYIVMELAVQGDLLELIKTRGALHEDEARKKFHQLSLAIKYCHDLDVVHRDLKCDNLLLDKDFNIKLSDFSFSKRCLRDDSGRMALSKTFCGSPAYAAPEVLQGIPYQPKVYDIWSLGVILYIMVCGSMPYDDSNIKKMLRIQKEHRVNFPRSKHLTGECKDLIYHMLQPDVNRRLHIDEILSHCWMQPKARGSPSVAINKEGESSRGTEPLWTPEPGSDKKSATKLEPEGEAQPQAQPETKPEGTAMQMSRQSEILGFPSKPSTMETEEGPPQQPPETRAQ
Sequence of PRKCE (human) (Q02156 whole entry, looked up): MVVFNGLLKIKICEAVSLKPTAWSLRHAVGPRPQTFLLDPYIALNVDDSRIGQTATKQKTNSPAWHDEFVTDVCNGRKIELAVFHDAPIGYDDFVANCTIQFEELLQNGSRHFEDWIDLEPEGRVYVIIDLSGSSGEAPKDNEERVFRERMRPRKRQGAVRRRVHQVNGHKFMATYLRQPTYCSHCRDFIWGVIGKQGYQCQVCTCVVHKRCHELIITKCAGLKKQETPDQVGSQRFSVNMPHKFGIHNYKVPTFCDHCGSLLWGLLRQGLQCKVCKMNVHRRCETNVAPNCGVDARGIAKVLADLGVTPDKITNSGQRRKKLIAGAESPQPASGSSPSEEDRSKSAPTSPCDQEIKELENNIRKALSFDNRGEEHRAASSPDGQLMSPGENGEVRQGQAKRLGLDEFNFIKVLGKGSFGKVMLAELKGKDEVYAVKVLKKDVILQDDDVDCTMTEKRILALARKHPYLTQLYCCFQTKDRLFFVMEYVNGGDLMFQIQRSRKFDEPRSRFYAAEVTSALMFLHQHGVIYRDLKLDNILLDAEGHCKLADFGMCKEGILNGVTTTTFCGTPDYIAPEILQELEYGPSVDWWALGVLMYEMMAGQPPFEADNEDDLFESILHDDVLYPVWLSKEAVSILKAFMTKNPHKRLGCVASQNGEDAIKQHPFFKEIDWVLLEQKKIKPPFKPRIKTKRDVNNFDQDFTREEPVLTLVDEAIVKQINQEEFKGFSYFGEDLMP
Sequence of RPS6KA3 KD1 KD2 (human) (P51812 whole entry, looked up): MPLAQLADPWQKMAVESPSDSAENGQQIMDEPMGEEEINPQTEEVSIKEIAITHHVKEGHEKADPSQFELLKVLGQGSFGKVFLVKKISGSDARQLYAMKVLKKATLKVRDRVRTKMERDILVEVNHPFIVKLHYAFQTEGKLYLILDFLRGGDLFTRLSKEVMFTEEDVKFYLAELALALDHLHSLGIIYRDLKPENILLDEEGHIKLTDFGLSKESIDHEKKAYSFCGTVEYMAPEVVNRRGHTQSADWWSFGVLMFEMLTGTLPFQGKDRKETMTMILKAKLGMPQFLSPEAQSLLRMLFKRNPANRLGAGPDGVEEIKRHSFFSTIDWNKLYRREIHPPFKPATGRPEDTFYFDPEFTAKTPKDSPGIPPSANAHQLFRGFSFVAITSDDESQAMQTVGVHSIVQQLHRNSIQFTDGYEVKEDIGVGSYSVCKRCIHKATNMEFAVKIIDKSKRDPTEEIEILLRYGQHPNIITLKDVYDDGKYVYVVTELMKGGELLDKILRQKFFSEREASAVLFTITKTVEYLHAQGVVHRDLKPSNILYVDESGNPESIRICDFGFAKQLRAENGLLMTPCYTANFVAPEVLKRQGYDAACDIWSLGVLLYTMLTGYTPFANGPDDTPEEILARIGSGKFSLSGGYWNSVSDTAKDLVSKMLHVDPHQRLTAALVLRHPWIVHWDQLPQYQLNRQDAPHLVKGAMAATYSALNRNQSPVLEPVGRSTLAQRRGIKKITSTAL
Sequence of MAPKAPK3 (human) (Q16644 whole entry, looked up): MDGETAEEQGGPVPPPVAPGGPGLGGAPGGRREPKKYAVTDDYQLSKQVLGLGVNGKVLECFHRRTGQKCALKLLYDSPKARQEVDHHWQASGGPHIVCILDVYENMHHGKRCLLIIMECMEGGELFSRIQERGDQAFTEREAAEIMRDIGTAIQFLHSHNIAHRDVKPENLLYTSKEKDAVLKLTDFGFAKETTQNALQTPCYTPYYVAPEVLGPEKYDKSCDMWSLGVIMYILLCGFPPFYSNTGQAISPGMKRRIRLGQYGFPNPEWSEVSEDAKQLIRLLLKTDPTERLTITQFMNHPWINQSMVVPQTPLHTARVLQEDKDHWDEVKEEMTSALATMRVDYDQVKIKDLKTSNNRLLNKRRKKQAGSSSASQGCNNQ

inhibition (LYN (human); compound 0.01 µM): -6%
inhibition (LYN (human); compound 0.1 µM): -9.2%
inhibition (BRSK1 (human); compound 0.01 µM): 9.9%
inhibition (BRSK1 (human); compound 0.1 µM): -7.5%
inhibition (FGFR2 (human); compound 0.01 µM): -8.2%
inhibition (FGFR2 (human); compound 0.1 µM): 8.7%
inhibition (AKT2 (human); compound 0.01 µM): -0.2%
inhibition (AKT2 (human); compound 0.1 µM): -1.6%
inhibition (CAMK2B (human); compound 0.01 µM): 79.2%
inhibition (CAMK2B (human); compound 0.1 µM): -4.6%
inhibition (PIM1 (human); compound 0.01 µM): -4.8%
inhibition (PIM1 (human); compound 0.1 µM): -6.2%
inhibition (BRSK2 (human); compound 0.01 µM): -1.9%
inhibition (BRSK2 (human); compound 0.1 µM): 4.8%
inhibition (PRKCA (human); compound 0.01 µM): 0.2%
inhibition (PRKCA (human); compound 0.1 µM): 1.3%
inhibition (RPS6KA2 KD1 KD2 (human); compound 0.01 µM): -8.9%
inhibition (RPS6KA2 KD1 KD2 (human); compound 0.1 µM): 2%
inhibition (PRKCB2 (human); compound 0.01 µM): 14.8%
inhibition (PRKCB2 (human); compound 0.1 µM): 6%
inhibition (BTK (human); compound 0.01 µM): 5.6%
inhibition (BTK (human); compound 0.1 µM): 5.1%
inhibition (FLT3 (human); compound 0.01 µM): 0.2%
inhibition (FLT3 (human); compound 0.1 µM): 5%
inhibition (MAPK14 (human); compound 0.01 µM): -1.2%
inhibition (MAPK14 (human); compound 0.1 µM): -6.5%
inhibition (FYN (human); compound 0.01 µM): -0.4%
inhibition (FYN (human); compound 0.1 µM): -7.3%
inhibition (PRKCB1 (human); compound 0.01 µM): 4.1%
inhibition (PRKCB1 (human); compound 0.1 µM): 6.7%
inhibition (RPS6KA3 KD1 KD2 (human); compound 0.01 µM): -1.1%
inhibition (RPS6KA3 KD1 KD2 (human); compound 0.1 µM): 8.1%
inhibition (TSSK1B (human); compound 0.01 µM): 7.3%
inhibition (TSSK1B (human); compound 0.1 µM): -5.2%
inhibition (AURKA (human); compound 0.01 µM): -4.6%
inhibition (AURKA (human); compound 0.1 µM): 13.1%
inhibition ([1]; compound 0.01 µM): 3.6%
inhibition ([1]; compound 0.1 µM): 26.3%
inhibition (PRKCE (human); compound 0.01 µM): 1.3%
inhibition (PRKCE (human); compound 0.1 µM): -2%
inhibition (PIM2 (human); compound 0.01 µM): 4.3%
inhibition (PIM2 (human); compound 0.1 µM): 2.9%
inhibition ([2]; compound 0.01 µM): 19.6%
inhibition ([2]; compound 0.1 µM): -2.4%
inhibition (MAPK13 (human); compound 0.01 µM): 5.5%
inhibition (MAPK13 (human); compound 0.1 µM): -5.7%
inhibition (MAPKAPK2 (human); compound 0.01 µM): 0.4%
inhibition (MAPKAPK2 (human); compound 0.1 µM): -1.9%
inhibition (KDR (human); compound 0.01 µM): -4.1%
inhibition (KDR (human); compound 0.1 µM): 4.1%
inhibition (RPS6KA1 KD1 KD2 (human); compound 0.01 µM): -1.6%
inhibition (RPS6KA1 KD1 KD2 (human); compound 0.1 µM): 13.5%
inhibition (CDK2 (human); compound 0.01 µM): -0.9%
inhibition (CDK2 (human); compound 0.1 µM): -0.9%
inhibition (MARK2 (human); compound 0.01 µM): -7%
inhibition (MARK2 (human); compound 0.1 µM): -10%
inhibition (CAMK4 (human); compound 0.01 µM): 2.8%
inhibition (CAMK4 (human); compound 0.1 µM): -12.8%
inhibition (MAPKAPK3 (human); compound 0.01 µM): -0.3%
inhibition (MAPKAPK3 (human); compound 0.1 µM): -0.3%
inhibition (TSSK2 (human); compound 0.01 µM): 55.4%
inhibition (TSSK2 (human); compound 0.1 µM): -6.2%
inhibition (MAPK3 (human); compound 0.01 µM): -1%
inhibition (MAPK3 (human); compound 0.1 µM): 1.7%
inhibition (RPS6KA5 KD1 KD2 (human); compound 0.01 µM): -5.1%
inhibition (RPS6KA5 KD1 KD2 (human); compound 0.1 µM): -2.9%
Structure (SMILES): O=c1c2cc(CS(=O)(=O)NCc3ccccn3)ccc2ccc2ncc(C3CCNCC3)cc12

inhibition (LYN (human); compound 0.1 µM): 17.3%
inhibition (LYN (human); compound 1.0 µM): 9.6%
inhibition (BRSK1 (human); compound 0.1 µM): 2%
inhibition (BRSK1 (human); compound 1.0 µM): 5.2%
inhibition (FGFR2 (human); compound 0.1 µM): 3%
inhibition (AKT2 (human); compound 0.1 µM): 0.7%
inhibition (AKT2 (human); compound 1.0 µM): 1.9%
inhibition (CAMK2B (human); compound 0.1 µM): 2.1%
inhibition (PIM1 (human); compound 0.1 µM): -4.7%
inhibition (PIM1 (human); compound 1.0 µM): -8.3%
inhibition (BRSK2 (human); compound 0.1 µM): -1.3%
inhibition (BRSK2 (human); compound 1.0 µM): -9.5%
inhibition (PRKCA (human); compound 0.1 µM): -28%
inhibition (PRKCA (human); compound 1.0 µM): -0.1%
inhibition (RPS6KA2 KD1 KD2 (human); compound 0.1 µM): -1.6%
inhibition (RPS6KA2 KD1 KD2 (human); compound 1.0 µM): -5.3%
inhibition (PRKCB2 (human); compound 0.1 µM): -4.3%
inhibition (PRKCB2 (human); compound 1.0 µM): -2.5%
inhibition (BTK (human); compound 1.0 µM): 65%
inhibition (FLT3 (human); compound 0.1 µM): 11%
inhibition (FLT3 (human); compound 1.0 µM): 36.8%
inhibition (MAPK14 (human); compound 0.1 µM): 3.3%
inhibition (MAPK14 (human); compound 1.0 µM): -2.7%
inhibition (FYN (human); compound 0.1 µM): 4.37%
inhibition (FYN (human); compound 1.0 µM): 15.1%
inhibition (PRKCB1 (human); compound 0.1 µM): -20.8%
inhibition (PRKCB1 (human); compound 1.0 µM): -18.2%
inhibition (RPS6KA3 KD1 KD2 (human); compound 0.1 µM): 0.2%
inhibition (RPS6KA3 KD1 KD2 (human); compound 1.0 µM): -6%
inhibition (TSSK1B (human); compound 0.1 µM): -2.7%
inhibition (AURKA (human); compound 0.1 µM): 14.5%
inhibition (AURKA (human); compound 1.0 µM): 26.8%
inhibition ([1]; compound 0.1 µM): 1.4%
inhibition (PRKCE (human); compound 0.1 µM): -9.1%
inhibition (PRKCE (human); compound 1.0 µM): -5.1%
inhibition (PIM2 (human); compound 0.1 µM): 25.2%
inhibition (PIM2 (human); compound 1.0 µM): 16.7%
inhibition ([2]; compound 0.1 µM): 3.3%
inhibition (MAPK13 (human); compound 0.1 µM): -4.9%
inhibition (MAPKAPK2 (human); compound 0.1 µM): 7.6%
inhibition (MAPKAPK2 (human); compound 1.0 µM): 1.3%
inhibition (KDR (human); compound 0.1 µM): -5.2%
inhibition (KDR (human); compound 1.0 µM): 41.8%
inhibition (RPS6KA1 KD1 KD2 (human); compound 0.1 µM): 8.6%
inhibition (RPS6KA1 KD1 KD2 (human); compound 1.0 µM): 0%
inhibition (CDK2 (human); compound 0.1 µM): 1.9%
inhibition (CDK2 (human); compound 1.0 µM): 1.4%
inhibition (MARK2 (human); compound 0.1 µM): -12.6%
inhibition (MARK2 (human); compound 1.0 µM): 2.4%
inhibition (CAMK4 (human); compound 0.1 µM): -1.9%
inhibition (CAMK4 (human); compound 1.0 µM): -4.2%
inhibition (MAPKAPK3 (human); compound 0.1 µM): -2.7%
inhibition (TSSK2 (human); compound 0.1 µM): 0.7%
inhibition (MAPK3 (human); compound 0.1 µM): 7.2%
inhibition (MAPK3 (human); compound 1.0 µM): 2.8%
inhibition (RPS6KA5 KD1 KD2 (human); compound 0.1 µM): 0.7%
inhibition (RPS6KA5 KD1 KD2 (human); compound 1.0 µM): -0.4%
Structure (SMILES): Cn1cc(-c2cnc3ccc4ccc(CS(=O)(=O)NCC5CCCCN5)cc4c(=O)c3c2)cn1 (stereo not drawn)
